According to US11123313B2, “Methods and compositions for treating sleep apnea” (The Brigham and Women's Hospital, Inc., priority 2017, dated 2021):

Test system: obstructive sleep apnea (OSA) human patients
Details: seven OSA patients, 2 additional nights with single drugs
Protocol: Subsequently, a placebo-controlled, double-blinded, randomized, crossover trial in 20 obstructive sleep apnea (OSA) human patients was performed. Participants received treatment (Atomoxetine 80 mg+Oxybutynin 5 mg) or placebo in randomized order 30 minutes before sleep. […] Data are expressed as median [25th-75th percentile]
Seven OSA patients were studied also on 2 additional nights in which the 2 drugs were administered alone (not in combination).
Group data was obtained using genioglossus electromyography in 16 out of 20 patients who took part to the original trial to determine the effect of Atomoxetine plus Oxybutynin (ato-oxy) on genioglossus muscle responsiveness. Muscle responsiveness reflects the change in genioglossus muscle electromyographic activity (percent of baseline) per change in esophageal pressure (Pes) swings during spontaneous breathing in non-REM sleep (see FIG. 10B for physiological context).

Compound | AHI compared to placebo, drugs alone vs in combination
CCN(CC)CC#CCOC(=O)C(O)(c1ccccc1)C1CCCCC1 (centres unmarked) [Oxybutynin] | did not improve the AHI
CNCC[C@@H](Oc1ccccc1C)c1ccccc1 [Atomoxetine] | did not improve the AHI
